According to PMC6979384, “Characterization of the plant homeodomain (PHD) reader family for their histone tail interactions” (Epigenetics & Chromatin, 2020):

Tests used:
Assay in all cases: Histone peptide microarray
Format in all cases: binding, human
PHF8 = conditions: PHF8; sheet "Array Heatmap"; each array performed twice, total n = 4
How it was run: (§1)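 Binding read as mean relative signal from 4 replicates; microarray held 293 synthetic histone peptides with single or combinatorial PTMs. Each GST-tagged PHD reader was applied at 0.5 μM using the optimized Petell protocol.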

KDM5A (3) = conditions: KDM5A (3); sheet "Array Heatmap"; each array performed twice, total n = 4
How it was run: as §1

ING3 = conditions: ING3; sheet "Array Heatmap"; each array performed twice, total n = 4
How it was run: as §1

PHF13 = conditions: PHF13; sheet "Array Heatmap"; each array performed twice, total n = 4
How it was run: as §1

MLL5 = conditions: MLL5; sheet "Array Heatmap"; each array performed twice, total n = 4
How it was run: as §1

RAG2 = conditions: RAG2; sheet "Array Heatmap"; each array performed twice, total n = 4
How it was run: as §1

ING2 = conditions: ING2; sheet "Array Heatmap"; each array performed twice, total n = 4
How it was run: as §1

PHF2 = conditions: PHF2; sheet "Array Heatmap"; each array performed twice, total n = 4
How it was run: as §1

DPF2 (PPC2W2) = conditions: DPF2 (PPC2W2); sheet "Array Heatmap"; each array performed twice, total n = 4
How it was run: as §1

MORC3 (CW) = conditions: MORC3 (CW); sheet "Array Heatmap"; each array performed twice, total n = 4
How it was run: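 Steps: express and purify GST-tagged PHD reader; incubate 0.5 μM protein on a peptide microarray (293 histone peptides, single or combined PTMs) following an optimized protocol; average signal across 4 replicates.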

KDM5B (1) = conditions: KDM5B (1); sheet "Array Heatmap"; each array performed twice, total n = 4
How it was run: as §1

AIRE (PP) = conditions: AIRE (PP); sheet "Array Heatmap"; each array performed twice, total n = 4
How it was run: as §1

ING4 = conditions: ING4; sheet "Array Heatmap"; each array performed twice, total n = 4
How it was run: as §1

ING5 = conditions: ING5; sheet "Array Heatmap"; each array performed twice, total n = 4
How it was run: as §1

KDM5A (1) = conditions: KDM5A (1); sheet "Array Heatmap"; each array performed twice, total n = 4
How it was run: as §1

SP140L = conditions: SP140L; sheet "Array Heatmap"; each array performed twice, total n = 4
How it was run: as §1

CHD5 (PCC) = conditions: CHD5 (PCC); sheet "Array Heatmap"; each array performed twice, total n = 4
How it was run: as §1

TRIM66 (PB) = conditions: TRIM66 (PB); sheet "Array Heatmap"; each array performed twice, total n = 4
How it was run: as §1

PHRF1 (RP) = conditions: PHRF1 (RP); sheet "Array Heatmap"; each array performed twice, total n = 4
How it was run: as §1

BPTF (PB) = conditions: BPTF (PB); sheet "Array Heatmap"; each array performed twice, total n = 4
How it was run: as §1

CHD5 (PPCC) = conditions: CHD5 (PPCC); sheet "Array Heatmap"; each array performed twice, total n = 4
How it was run: as §1

DIDO1 = conditions: DIDO1; sheet "Array Heatmap"; each array performed twice, total n = 4
How it was run: as §1

ING1 = conditions: ING1; sheet "Array Heatmap"; each array performed twice, total n = 4
How it was run: as §1

KDM5B (3) = conditions: KDM5B (3); sheet "Array Heatmap"; each array performed twice, total n = 4
How it was run: as §1

CHD4 (PPCC) = conditions: CHD4 (PPCC); sheet "Array Heatmap"; each array performed twice, total n = 4
How it was run: as §1

KDM4C (TTP) = conditions: KDM4C (TTP); sheet "Array Heatmap"; each array performed twice, total n = 4
How it was run: as §1

PHF23 = conditions: PHF23; sheet "Array Heatmap"; each array performed twice, total n = 4
How it was run: as §1

PHF21A = conditions: PHF21A; sheet "Array Heatmap"; each array performed twice, total n = 4
How it was run: as §1

TAF3 = conditions: TAF3; sheet "Array Heatmap"; each array performed twice, total n = 4
How it was run: as §1

BAZ2B = conditions: BAZ2B; sheet "Array Heatmap"; each array performed twice, total n = 4
How it was run: as §1

KDM7A = conditions: KDM7A; sheet "Array Heatmap"; each array performed twice, total n = 4
How it was run: as §1

Substance | Array Heatmap value (peptide array signal) (PHF8) | Array Heatmap value (peptide array signal) (KDM5A (3)) | Array Heatmap value (peptide array signal) (ING3) | Array Heatmap value (peptide array signal) (PHF13) | Array Heatmap value (peptide array signal) (MLL5) | Array Heatmap value (peptide array signal) (RAG2) | Array Heatmap value (peptide array signal) (ING2) | Array Heatmap value (peptide array signal) (PHF2) | Array Heatmap value (peptide array signal) (DPF2 (PPC2W2)) | Array Heatmap value (peptide array signal) (MORC3 (CW)) | Array Heatmap value (peptide array signal) (KDM5B (1)) | Array Heatmap value (peptide array signal) (AIRE (PP)) | Array Heatmap value (peptide array signal) (ING4) | Array Heatmap value (peptide array signal) (ING5) | Array Heatmap value (peptide array signal) (KDM5A (1)) | Array Heatmap value (peptide array signal) (SP140L) | Array Heatmap value (peptide array signal) (CHD5 (PCC)) | Array Heatmap value (peptide array signal) (TRIM66 (PB)) | Array Heatmap value (peptide array signal) (PHRF1 (RP)) | Array Heatmap value (peptide array signal) (BPTF (PB)) | further results
H4K5ac + K8ac + K12me1 + K16ac: H4 1-23 | 0.3954 | 0.4814 | 0.5746 | 0.7176 | 0.5904 | 0.2841 | 0.6062 | 0.5943 | 0.7404 | 0.4079 | 0.6517 | 0.4852 | 0.538 | 0.4233 | 0.525 | 0.4016 | 0.8246 | 0.6523 | 0.5035 | 0.4205 | Array Heatmap value (peptide array signal) (CHD5 (PPCC)): 0.6457; Array Heatmap value (peptide array signal) (DIDO1): 0.7398; Array Heatmap value (peptide array signal) (ING1): 0.5999; Array Heatmap value (peptide array signal) (KDM5B (3)): 0.5615; Array Heatmap value (peptide array signal) (CHD4 (PPCC)): 0.628; Array Heatmap value (peptide array signal) (KDM4C (TTP)): 0.5546; Array Heatmap value (peptide array signal) (PHF23): 0.5681; Array Heatmap value (peptide array signal) (PHF21A): 0.5148; Array Heatmap value (peptide array signal) (TAF3): 0.2985; Array Heatmap value (peptide array signal) (BAZ2B): 0.5334; Array Heatmap value (peptide array signal) (KDM7A): 0.3906
H4K5ac + K8ac + K16ac: H4 1-23 | 0.3765 | 0.4685 | 0.5105 | 0.6186 | 0.5646 | 0.2519 | 0.5942 | 0.5897 | 0.7091 | 0.3785 | 0.6453 | 0.4269 | 0.4699 | 0.3649 | 0.4528 | 0.3822 | 0.7848 | 0.6293 | 0.4907 | 0.3802 | Array Heatmap value (peptide array signal) (CHD5 (PPCC)): 0.5628; Array Heatmap value (peptide array signal) (DIDO1): 0.7386; Array Heatmap value (peptide array signal) (ING1): 0.5586; Array Heatmap value (peptide array signal) (KDM5B (3)): 0.4621; Array Heatmap value (peptide array signal) (CHD4 (PPCC)): 0.6069; Array Heatmap value (peptide array signal) (KDM4C (TTP)): 0.487; Array Heatmap value (peptide array signal) (PHF23): 0.5402; Array Heatmap value (peptide array signal) (PHF21A): 0.485; Array Heatmap value (peptide array signal) (TAF3): 0.2628; Array Heatmap value (peptide array signal) (BAZ2B): 0.469; Array Heatmap value (peptide array signal) (KDM7A): 0.3432
